Measurements: ChEMBL document CHEMBL3045949, “Antifeedant and toxic effects of naturally occurring and synthetic quinones to the cabbage looper, Trichoplusia ni” (Crop Prot, 2012)

How the values were obtained:
Trichoplusia ni [1] = experiment: Toxicity against Trichoplusia ni (cabbage looper) third-instar larvae stage assessed as mortality at 10 ug/ml for 24 hr by topical application; type: functional
Trichoplusia ni [2] = experiment: Antifeedant activity against Trichoplusia ni (cabbage looper) third-instar larvae stage assessed as concentrations causing 50% feeding deterrence by feeding deterrent bioassay; type: functional, organism-based
Trichoplusia ni [3] = experiment: Antifeedant activity against Trichoplusia ni (cabbage looper) third-instar larvae stage assessed as feeding deterrence index at 50 microg/cm'2 by feeding deterrent bioassay; type: functional
Trichoplusia ni [4] = experiment: Protection of intact cabbage plants from Trichoplusia ni (cabbage looper) measured as reduction in weight of larvae by lopper in green house for 10 days (reference value: 33.8 mg); type: functional
Trichoplusia ni [5] = experiment: Protection of intact cabbage plants from Trichoplusia ni (cabbage looper) measured as leaf area consumed by lopper in green house for 10 days (reference value: 8.5 cm'2); type: functional

Row | SMILES | mortality at 10 µg/mL (Trichoplusia ni [1]) | DC50 (Trichoplusia ni [2]) | FDI (Trichoplusia ni [3]) | Activity (Trichoplusia ni [4]) | Activity (Trichoplusia ni [5])
1 | O=C1C=Cc2ccccc2C1=O [1,2-NAPHTHOQUINONE] | 3.3% | 1.8 microg/cm2 | 100% |  | 
2 | O=C1c2ccccc2C(=O)c2c(O)cccc21 [1-HYDROXYANTHRAQUINONE] | 10% |  | -41.5% |  | 
3 | c1ccc2c(c1)ccc1cccnc12 [1-NAPHTHOQUINOLINE] | 10% | 16.4 microg/cm2 | 75.7% |  | 
4 | O=C1C(Br)=C(Br)C(=O)c2ccccc21 [2,3-Dibromo-1,4-naphthoquinone] | 10% | 26.4 microg/cm2 | 100% |  | 
5 | O=C1C=C(Br)C(=O)c2ccccc21 [2-Bromo-1,4-naphthoquinone] | 15% | 8.4 microg/cm2 | 80.7% |  | 
6 | O=C1C(Cl)=C(N2CCOCC2)C(=O)c2ccccc21 [2-Chloro-3-morpholino-1,4-naphthoquinone] | 12% | 9.7 microg/cm2 | 100% |  | 
7 | COC1=CC(=O)c2ccccc2C1=O [2-Methoxy-1,4-naphthoquinone] | 8% | 2.6 microg/cm2 | 96.8% |  | 
8 | O=C1C(=O)c2ccccc2-c2ccccc21 [9,10-PHENANTHRENEQUINONE] | 10% |  | -15.4% |  | 
9 | O=C1c2cccc(O)c2C(=O)c2cccc(O)c21 [ANTHRARUFIN] | 15% |  | -58.6% |  | 
10 | O=C1C=CC(=O)C=C1 [BENZOQUINONE] |  |  | 17.8% |  | 
11 | O=C1C(Cl)=C(Cl)C(=O)C(Cl)=C1Cl [CHLORANIL] | 10% |  | 35.8% |  | 
12 | O=C1c2cccc(O)c2C(=O)c2c(O)cccc21 [DANTHRON] | 12% | 9.2 microg/cm2 | 86.2% |  | 
13 | CC1=C(Br)C(=O)C(C(C)C)=C(Br)C1=O [Dibromothymoquinone] | 5% |  | 42.2% |  | 
14 | O=C1C(Cl)=C(Cl)C(=O)c2ccccc21 [Dichlon] | 8% |  | 39.8% |  | 
15 | Cc1cc(O)c2c(c1)C(=O)c1cc(O)cc(O)c1C2=O [EMODIN] | 10% |  | 22.1% |  | 
16 | O=C1C=CC(=O)c2c(O)cccc21 [JUGLONE] | 5% | 2.1 microg/cm2 | 100% | 8.1 mg | 1.7 cm2
17 | CC(C)=CCC1=C(O)C(=O)c2ccccc2C1=O [LAPACHOL] | 10% |  | 9.1% |  | 
18 | CC1=CC(=O)c2ccccc2C1=O [MENADIONE] | 13% | 6.3 microg/cm2 | 100% |  | 
19 | O=C1C=CC(=O)c2c(O)ccc(O)c21 [NAPHTHAZALIN] | 20% | 10.1 microg/cm2 | 100% |  | 
20 | CC1=CC(=O)c2c(O)cccc2C1=O [PLUMBAGIN] | 7% | 3.3 microg/cm2 | 100% | 12.7 mg | 3.5 cm2
21 | CC1=CC(=O)C(C(C)C)=CC1=O [THYMOQUINONE] | 26.7% | 19.3 microg/cm2 | 100% |  | 
22 | COC1=C(OC)C(=O)C(C)=CC1=O [Ubiquinone Qo] | 23.3% | 4.2 microg/cm2 | 86.7% |  | 
